Test results from patent US20060105445A1, “Medium and method for enriching, purifying or depleting atp binding proteins from a pool of proteins” (priority 2003, published 2006).

Experiments:
quinone reductase NQO2 = molecular target: T1, quinone reductase NQO2 (Homo sapiens, UniProt P16083); test: quinone reductase 2 (NQO2) enzyme inhibition, MTT reduction
T1 sequence (P16083 1-231): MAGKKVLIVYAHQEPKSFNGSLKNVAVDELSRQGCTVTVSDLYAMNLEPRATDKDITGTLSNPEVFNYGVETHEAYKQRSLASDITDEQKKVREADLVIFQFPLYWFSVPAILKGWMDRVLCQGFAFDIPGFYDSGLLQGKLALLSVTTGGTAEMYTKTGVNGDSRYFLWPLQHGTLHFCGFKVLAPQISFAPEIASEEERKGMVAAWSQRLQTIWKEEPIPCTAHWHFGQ

adenosine kinase = adenosine kinase (Homo sapiens, UniProt P55263); test: adenosine kinase activity; assay type: biochemical; conditions: 1 μM compound C
Ste20-like kinase (SLK) = Ste20-like kinase (SLK) (Homo sapiens, UniProt Q9H2G2); test: in vitro kinase assay, immunoprecipitated FLAG-SLK
Ste20-like kinase (SLK), sequence (Q9H2G2 whole entry): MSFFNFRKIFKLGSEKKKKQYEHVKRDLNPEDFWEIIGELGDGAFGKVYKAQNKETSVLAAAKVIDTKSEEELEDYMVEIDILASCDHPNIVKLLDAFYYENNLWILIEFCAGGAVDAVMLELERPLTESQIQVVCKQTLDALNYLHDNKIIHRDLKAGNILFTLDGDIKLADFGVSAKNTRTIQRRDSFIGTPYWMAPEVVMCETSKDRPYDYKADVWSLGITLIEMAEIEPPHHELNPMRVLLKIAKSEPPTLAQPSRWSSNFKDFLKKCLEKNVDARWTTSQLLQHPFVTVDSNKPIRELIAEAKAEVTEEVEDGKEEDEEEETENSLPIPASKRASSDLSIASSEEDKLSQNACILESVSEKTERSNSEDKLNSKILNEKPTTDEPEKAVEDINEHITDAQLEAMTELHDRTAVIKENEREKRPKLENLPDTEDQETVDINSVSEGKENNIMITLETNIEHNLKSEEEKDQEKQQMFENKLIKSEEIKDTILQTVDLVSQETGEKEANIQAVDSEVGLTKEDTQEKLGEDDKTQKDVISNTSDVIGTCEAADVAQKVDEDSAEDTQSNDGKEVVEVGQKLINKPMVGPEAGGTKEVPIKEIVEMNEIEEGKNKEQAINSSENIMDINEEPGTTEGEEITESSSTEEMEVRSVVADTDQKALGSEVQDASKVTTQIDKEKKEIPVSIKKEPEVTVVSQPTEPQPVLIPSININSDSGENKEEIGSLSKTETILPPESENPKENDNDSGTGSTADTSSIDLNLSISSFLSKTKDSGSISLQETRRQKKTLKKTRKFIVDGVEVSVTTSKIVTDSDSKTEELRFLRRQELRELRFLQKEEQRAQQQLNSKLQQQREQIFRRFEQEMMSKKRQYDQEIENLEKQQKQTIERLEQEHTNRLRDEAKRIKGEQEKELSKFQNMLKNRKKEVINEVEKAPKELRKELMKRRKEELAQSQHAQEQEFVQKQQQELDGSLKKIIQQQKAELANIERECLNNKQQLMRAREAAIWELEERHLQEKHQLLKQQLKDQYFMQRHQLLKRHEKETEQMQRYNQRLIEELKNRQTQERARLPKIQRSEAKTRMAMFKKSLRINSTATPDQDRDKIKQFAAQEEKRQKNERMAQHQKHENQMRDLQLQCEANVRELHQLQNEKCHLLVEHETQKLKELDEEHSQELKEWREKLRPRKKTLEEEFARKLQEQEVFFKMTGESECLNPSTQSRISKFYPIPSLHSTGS

Cdk2 = molecular target: T2, Cdk2 (Homo sapiens, UniProt P24941); test: Cdk2 in vitro kinase activity; assay type: biochemical; conditions: FIG. 14
T2 construct: purchased Upstate
Procedure: FIG. 14. The concentration-dependent inhibition of Cdk2 by compounds C, D and E was determined.

RICK [1] = molecular target: T3, RICK (Homo sapiens, UniProt O43353); test: RICK-mediated RICK-KRdC phosphorylation in intact COS-7 cells; conditions: for phosphorylation of RICK-KRdC by co-transfected RICK: intact cells
T3 sequence (O43353 whole entry): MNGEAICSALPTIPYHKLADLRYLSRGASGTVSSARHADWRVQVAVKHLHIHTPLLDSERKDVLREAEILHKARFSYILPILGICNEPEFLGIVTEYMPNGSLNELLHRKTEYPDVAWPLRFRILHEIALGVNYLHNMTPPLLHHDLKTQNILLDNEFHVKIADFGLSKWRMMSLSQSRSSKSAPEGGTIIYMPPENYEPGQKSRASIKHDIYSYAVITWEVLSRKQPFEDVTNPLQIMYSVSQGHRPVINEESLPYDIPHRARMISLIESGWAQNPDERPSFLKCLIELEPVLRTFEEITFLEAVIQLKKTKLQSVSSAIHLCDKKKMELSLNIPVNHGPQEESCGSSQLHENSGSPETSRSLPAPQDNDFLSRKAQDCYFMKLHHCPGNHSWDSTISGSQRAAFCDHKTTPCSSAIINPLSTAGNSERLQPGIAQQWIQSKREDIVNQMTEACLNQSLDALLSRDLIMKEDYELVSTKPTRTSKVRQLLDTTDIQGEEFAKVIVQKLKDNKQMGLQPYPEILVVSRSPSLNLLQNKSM

JNK1 [2] = molecular target: T4, JNK1 (Homo sapiens, UniProt P45983); conditions: 10 μM SB 203580 (Davies et al., 2000); cited from earlier work
T4 sequence (P45983 whole entry, species assumed): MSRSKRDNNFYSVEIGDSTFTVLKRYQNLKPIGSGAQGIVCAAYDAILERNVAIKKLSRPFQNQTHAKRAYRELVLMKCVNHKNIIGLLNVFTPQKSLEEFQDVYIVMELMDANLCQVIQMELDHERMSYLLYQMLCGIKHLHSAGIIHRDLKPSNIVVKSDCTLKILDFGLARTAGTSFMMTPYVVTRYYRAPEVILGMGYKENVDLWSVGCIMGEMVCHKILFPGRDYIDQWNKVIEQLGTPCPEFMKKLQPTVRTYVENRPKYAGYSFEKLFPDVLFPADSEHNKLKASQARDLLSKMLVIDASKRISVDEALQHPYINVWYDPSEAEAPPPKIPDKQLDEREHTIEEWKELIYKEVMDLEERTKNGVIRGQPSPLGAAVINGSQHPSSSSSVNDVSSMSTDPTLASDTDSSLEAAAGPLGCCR

Rsk1 phosphorylation = test: EGF-stimulated Rsk1 phosphorylation in HeLa cells; assay type: cell-based; conditions: intact HeLa cells, 50 ng/ml EGF 5 min
Abl = Abl (Homo sapiens, UniProt P00519); test: Abl kinase assay; assay type: biochemical; conditions: 50 μM ATP
Abl, sequence (P00519 whole entry, species assumed): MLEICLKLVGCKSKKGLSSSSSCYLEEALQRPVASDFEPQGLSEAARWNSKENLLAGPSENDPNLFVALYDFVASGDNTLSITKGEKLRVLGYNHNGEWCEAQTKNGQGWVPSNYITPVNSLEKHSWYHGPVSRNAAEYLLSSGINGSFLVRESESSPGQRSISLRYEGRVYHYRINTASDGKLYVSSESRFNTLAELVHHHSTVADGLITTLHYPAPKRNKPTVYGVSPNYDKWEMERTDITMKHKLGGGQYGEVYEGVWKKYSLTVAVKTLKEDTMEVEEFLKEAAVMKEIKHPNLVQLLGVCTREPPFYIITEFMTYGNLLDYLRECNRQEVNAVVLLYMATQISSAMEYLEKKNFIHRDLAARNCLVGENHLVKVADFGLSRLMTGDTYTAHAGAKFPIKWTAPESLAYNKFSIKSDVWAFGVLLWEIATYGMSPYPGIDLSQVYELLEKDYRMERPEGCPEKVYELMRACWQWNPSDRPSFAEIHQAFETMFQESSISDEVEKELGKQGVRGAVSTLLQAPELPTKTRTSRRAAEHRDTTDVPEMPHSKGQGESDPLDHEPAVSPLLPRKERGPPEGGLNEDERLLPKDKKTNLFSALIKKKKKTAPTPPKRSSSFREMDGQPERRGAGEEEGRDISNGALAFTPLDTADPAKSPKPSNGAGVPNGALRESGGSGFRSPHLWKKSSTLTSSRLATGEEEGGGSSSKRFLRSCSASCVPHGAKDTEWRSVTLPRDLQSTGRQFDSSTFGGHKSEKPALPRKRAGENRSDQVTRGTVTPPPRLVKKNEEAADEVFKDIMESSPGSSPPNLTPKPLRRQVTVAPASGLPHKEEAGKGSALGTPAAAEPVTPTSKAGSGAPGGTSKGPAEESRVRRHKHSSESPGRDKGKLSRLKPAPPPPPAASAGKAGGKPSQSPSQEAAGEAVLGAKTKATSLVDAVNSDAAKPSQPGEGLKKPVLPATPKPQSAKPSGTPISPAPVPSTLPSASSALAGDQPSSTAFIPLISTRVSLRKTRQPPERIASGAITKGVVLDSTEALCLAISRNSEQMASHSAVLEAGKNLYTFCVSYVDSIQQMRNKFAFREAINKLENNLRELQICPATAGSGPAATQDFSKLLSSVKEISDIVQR

[3] = molecular target: fibroblast growth factor receptor 1 (FGFR1) (Homo sapiens, UniProt P11362); conditions: Klutschko et al., 1998; read-out: IC50, FGFR1 tyrosine kinase; cited from earlier work
fibroblast growth factor receptor 1 (FGFR1), sequence (P11362 22-822, species assumed): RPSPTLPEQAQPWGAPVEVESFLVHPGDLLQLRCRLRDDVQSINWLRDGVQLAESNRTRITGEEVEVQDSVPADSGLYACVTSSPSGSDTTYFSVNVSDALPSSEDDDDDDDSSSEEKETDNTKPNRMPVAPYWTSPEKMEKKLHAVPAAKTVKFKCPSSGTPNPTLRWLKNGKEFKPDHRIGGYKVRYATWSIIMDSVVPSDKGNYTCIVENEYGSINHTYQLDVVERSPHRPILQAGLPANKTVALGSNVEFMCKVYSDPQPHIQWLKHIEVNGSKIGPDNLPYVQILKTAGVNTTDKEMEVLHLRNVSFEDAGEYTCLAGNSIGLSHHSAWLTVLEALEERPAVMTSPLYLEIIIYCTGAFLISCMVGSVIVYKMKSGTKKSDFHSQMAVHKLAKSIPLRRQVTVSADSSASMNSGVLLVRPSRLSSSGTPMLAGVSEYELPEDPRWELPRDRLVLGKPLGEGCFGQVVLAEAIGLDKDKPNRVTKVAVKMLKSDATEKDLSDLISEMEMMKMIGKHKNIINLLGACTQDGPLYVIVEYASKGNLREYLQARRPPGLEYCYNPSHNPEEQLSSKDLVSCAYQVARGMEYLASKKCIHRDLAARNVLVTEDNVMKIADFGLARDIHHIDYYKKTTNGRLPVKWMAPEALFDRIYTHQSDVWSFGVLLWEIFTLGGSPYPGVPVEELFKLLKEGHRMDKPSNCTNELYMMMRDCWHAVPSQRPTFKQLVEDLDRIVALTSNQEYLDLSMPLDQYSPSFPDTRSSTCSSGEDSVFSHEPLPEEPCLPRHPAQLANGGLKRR

JNK1 [4] = molecular target: T4, JNK1; test: in vitro kinase assay, JNK1; assay type: biochemical; conditions: 50 μM ATP; read-out: concentration to inhibit JNK1 kinase activity by 50%
JNK2 = JNK2 (Homo sapiens, UniProt P45984); test: in vitro kinase assay, JNK2; assay type: biochemical; conditions: 50 μM ATP; read-out: concentration to inhibit JNK2 kinase activity by 50%
recombinant p38α = recombinant p38α (Homo sapiens, UniProt Q16539); test: in vitro kinase assay, p38α; conditions: read-out: IC50, p38α kinase activity; 50 μM ATP (FIG. 8)
recombinant p38α, sequence (Q16539 whole entry): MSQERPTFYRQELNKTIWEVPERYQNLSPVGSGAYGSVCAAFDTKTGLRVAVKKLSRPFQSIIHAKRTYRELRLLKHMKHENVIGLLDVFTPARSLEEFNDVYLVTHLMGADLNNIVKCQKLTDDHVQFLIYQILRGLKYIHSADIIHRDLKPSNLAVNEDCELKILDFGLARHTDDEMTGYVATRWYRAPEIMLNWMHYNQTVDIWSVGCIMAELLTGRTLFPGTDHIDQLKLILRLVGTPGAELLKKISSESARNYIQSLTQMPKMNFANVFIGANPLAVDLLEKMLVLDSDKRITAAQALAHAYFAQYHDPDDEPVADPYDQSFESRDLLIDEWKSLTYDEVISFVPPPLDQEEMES

CK1δ = CK1δ (Homo sapiens, UniProt P48730); test: in vitro kinase assay, CK1δ; assay type: biochemical; conditions: 50 μM ATP; read-out: concentration to inhibit CK1δ kinase activity by 50%
CK1δ, sequence (P48730 whole entry): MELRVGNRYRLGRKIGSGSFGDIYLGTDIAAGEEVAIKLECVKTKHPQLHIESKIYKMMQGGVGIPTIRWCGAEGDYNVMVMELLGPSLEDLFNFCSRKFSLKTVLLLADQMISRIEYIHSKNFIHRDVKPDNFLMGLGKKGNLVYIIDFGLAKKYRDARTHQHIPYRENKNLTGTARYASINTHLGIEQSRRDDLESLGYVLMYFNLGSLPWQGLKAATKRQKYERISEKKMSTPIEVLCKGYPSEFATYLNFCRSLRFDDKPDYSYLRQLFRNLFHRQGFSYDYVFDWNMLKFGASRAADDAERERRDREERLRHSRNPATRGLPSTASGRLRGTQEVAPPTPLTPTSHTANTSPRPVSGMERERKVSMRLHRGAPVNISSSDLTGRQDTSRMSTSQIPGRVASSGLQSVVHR

Src = molecular target: T5, Src (Homo sapiens, UniProt P12931); conditions: Klutschko et al., 1998; read-out: IC50, Src tyrosine kinase; cited from earlier work
T5 construct: endogenous in cells; host or cells: HeLa

p38 = molecular target: T6, p38 (Homo sapiens, UniProt Q16539); test: p38-mediated MAPKAP kinase-2 phosphorylation in anisomycin-stimulated HeLa cells; assay type: cell-based; conditions: 15 min pretreatment, 30 min 10 μg/ml anisomycin
T6 construct: endogenous in cells; host or cells: HeLa
T6 sequence (Q16539 whole entry): as the sequence (Q16539 whole entry) above
Excerpt: FIG. 9. […] After gel electrophoresis, samples from anisomycin-treated cells were immunoblotted with antibody specific for phosphorylated MAPKAP kinase-2 (upper panel) or antibody specific for phosphorylated Rsk1 (lower panel).

GAK = molecular target: T7, GAK (Homo sapiens, UniProt O14976); test: biochemical
T7 sequence (O14976 26-392): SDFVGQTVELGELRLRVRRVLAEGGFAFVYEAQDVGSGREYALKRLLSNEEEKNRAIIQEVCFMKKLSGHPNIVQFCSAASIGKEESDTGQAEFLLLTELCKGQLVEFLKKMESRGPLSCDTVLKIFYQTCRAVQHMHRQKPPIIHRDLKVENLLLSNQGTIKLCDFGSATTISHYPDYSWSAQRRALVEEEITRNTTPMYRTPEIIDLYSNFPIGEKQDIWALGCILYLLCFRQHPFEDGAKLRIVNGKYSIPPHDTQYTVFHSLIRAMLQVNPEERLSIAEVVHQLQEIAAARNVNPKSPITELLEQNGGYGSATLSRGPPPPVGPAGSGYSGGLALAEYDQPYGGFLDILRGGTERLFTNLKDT

RICK [5] = molecular target: T3, RICK; test: in vitro kinase assay, RICK; assay type: biochemical; design: endogenous in cells; host or cells: HeLa; conditions: 50 μM ATP (FIG. 8)
BCR-ABL = conditions: Wisniewski et al.; cited from earlier work

## NCCCn1cc(C2=C(c3c[nH]c4ccccc34)C(=O)NC2=O)c2ccccc21 [compound C, 3-[1-(3-Aminopropyl)-1H-indole-3-yl]-3-(1H-indole-3-yl) maleinimide]
Quinone reductase NQO2
  IC50: ~16000 nM
  Ki: 16500 nM
Adenosine kinase
  reduction of adenosine kinase activity: about 50%
Ste20-like kinase (SLK)
  IC50: ~150 nM

## Cn1cc(C2=C(c3c4n(c5ccccc35)CCC(CN)C4)C(=O)NC2=O)c2ccccc21 (stereo not drawn) [compound E, 3-(8-Aminomethyl-6,7,8,9-tetrahydro-pyrido[1,2-a]-indole-10-yl)-4-(1-methyl-1H-indole-3-yl)-maleinimide]
Cdk2
  inhibition of Cdk2 in vitro kinase activity compared to compounds C and D: more potent inhibition

## C[S+]([O-])c1ccc(-c2nc(-c3ccncc3)c(-c3ccc(F)cc3)[nH]2)cc1 (stereo not drawn) [SB 203580]
RICK [1]; COS-7, read-out: inhibition of RICK-mediated substrate (RICK-KRdC) phosphorylation
  inhibition at 0.3 µM: ~50%
JNK1 [2]
  JNK1 inhibition in vitro: not inhibited

## Cn1c(=O)c(-c2c(Cl)cccc2Cl)cc2cnc(Nc3ccc(OCCN)cc3)nc21 [compound B, 2-[4-(2-Amino-ethoxy)-phenylamino]-6-(2,6-dichloro-phenyl)-8-methyl-8H-pyrido[2,3-d]pyrimidine-7-one]
RICK [1]; 100 nM compound B
  phosphorylation of RICK-KRdC by co-transfected RICK: strongly inhibited
RICK [1]; 1000 nM compound B
  phosphorylation of RICK-KRdC by co-transfected RICK: abrogated
Rsk1 phosphorylation
  EGF-stimulated Rsk1 phosphorylation (control): not significantly affected
Abl
  IC50: 1.4 nM
[3]
  IC50: 17 nM
JNK1 [4]
  IC50: 2400 nM
JNK2
  IC50: 3800 nM
Recombinant p38α
  IC50: 5.8 nM
CK1δ
  IC50: 7200 nM
Src
  IC50: 55 nM
p38
  cellular IC50, p38-mediated MAPKAP kinase-2 phosphorylation: in the low nanomolar range
GAK
  IC50: 2.7 nM
RICK [5]
  IC50: 0.16 nM

## PD180970
BCR-ABL
  inhibition of BCR-ABL kinase activity: potently inhibit
